We go through one molecule from PMC5096949 (Toxicology letters, 2016).

Test [1] has as its target T1, Human Recombinant AADAC (arylacetamide deacetylase) (Homo sapiens, UniProt P22760).
T1 sequence (P22760 1-399): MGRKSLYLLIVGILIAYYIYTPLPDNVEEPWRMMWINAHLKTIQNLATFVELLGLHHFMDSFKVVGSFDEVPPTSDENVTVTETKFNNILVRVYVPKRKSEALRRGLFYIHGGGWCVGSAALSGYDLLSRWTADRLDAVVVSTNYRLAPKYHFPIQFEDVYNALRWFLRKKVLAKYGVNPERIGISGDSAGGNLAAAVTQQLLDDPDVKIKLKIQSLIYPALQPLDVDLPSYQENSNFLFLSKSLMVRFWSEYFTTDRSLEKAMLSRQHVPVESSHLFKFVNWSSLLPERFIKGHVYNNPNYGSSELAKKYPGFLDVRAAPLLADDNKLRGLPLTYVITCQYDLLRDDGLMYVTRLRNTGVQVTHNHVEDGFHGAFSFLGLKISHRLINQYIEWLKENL
The experiment in a line: Esterase inhibition, fluorimetric assay with CMNA substrate. It counts as biochemical.

The target of test [2] is T2, Human Recombinant FAAH (fatty acid amide hydrolase) (Homo sapiens, UniProt O00519).
T2 sequence (O00519 1-579): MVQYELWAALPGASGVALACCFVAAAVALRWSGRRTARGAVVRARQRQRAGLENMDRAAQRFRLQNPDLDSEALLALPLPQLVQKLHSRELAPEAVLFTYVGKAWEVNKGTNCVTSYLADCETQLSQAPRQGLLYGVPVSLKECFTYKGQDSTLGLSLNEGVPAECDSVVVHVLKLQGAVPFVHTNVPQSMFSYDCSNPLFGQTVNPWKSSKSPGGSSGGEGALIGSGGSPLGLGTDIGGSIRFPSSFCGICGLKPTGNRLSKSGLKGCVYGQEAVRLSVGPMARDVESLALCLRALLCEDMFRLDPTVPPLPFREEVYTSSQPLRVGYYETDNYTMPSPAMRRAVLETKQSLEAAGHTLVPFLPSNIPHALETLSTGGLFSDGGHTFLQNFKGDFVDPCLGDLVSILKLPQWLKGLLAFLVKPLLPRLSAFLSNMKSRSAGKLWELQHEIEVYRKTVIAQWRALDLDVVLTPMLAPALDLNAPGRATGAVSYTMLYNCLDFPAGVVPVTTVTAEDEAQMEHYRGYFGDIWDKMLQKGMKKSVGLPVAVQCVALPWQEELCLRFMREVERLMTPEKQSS
The experiment in a line: FAAH inhibition, fluorimetric assay with OMP substrate, recombinant enzyme. The format is biochemical.

The target in test [3] is T3, Human Recombinant hCE1 (carboxylesterase 1) (Homo sapiens, UniProt P23141).
T3 sequence (P23141 18-567): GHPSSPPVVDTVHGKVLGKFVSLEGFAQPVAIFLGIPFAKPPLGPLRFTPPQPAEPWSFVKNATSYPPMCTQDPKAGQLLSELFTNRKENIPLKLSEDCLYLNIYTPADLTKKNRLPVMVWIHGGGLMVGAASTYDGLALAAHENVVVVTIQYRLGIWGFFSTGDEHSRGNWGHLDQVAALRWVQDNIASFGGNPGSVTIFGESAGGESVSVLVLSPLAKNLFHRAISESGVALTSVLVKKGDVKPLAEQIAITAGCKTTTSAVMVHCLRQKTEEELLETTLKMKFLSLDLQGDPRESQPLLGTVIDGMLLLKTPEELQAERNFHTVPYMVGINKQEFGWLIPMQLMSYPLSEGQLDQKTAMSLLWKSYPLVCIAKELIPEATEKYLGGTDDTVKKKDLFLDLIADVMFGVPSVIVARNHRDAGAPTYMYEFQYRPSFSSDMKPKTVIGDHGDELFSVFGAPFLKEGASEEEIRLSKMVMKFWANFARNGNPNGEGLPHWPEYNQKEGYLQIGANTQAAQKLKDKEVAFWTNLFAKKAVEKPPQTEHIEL
The test can be described thus: Esterase inhibition, fluorimetric assay with CMNA substrate. It counts as biochemical.

For test [4], the system named is 3T3-L1 cells. The test can be described thus: 3T3-L1 adipocyte differentiation, Oil Red O staining of lipid accumulation. It counts as cell-based, Murine.
Test [5] addresses T4, Rat Brain Microsomes (FAAH) (Rattus norvegicus, UniProt P97612).
T4 sequence (P97612 1-579): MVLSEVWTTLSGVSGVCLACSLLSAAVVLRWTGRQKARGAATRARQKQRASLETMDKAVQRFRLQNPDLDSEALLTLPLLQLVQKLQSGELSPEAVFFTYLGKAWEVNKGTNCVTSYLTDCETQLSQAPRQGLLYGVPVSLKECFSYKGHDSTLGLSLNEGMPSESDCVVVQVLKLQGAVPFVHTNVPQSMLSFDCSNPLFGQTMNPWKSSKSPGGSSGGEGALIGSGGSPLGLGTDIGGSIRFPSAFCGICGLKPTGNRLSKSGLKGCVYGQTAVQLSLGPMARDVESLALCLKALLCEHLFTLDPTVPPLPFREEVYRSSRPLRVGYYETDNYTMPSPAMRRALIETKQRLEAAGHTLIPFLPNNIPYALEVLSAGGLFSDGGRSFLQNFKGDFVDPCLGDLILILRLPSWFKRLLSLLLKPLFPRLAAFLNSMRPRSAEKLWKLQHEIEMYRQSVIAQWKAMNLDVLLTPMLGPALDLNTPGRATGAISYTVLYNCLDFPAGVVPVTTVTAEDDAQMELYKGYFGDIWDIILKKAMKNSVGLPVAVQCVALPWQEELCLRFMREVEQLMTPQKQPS
The experiment in a line: FAAH inhibition in brain microsomes, OMP hydrolysis.

In test [6] the target is T5, Human Recombinant hCE2 (carboxylesterase 2) (Homo sapiens, UniProt O00748).
T5 sequence (O00748 27-559): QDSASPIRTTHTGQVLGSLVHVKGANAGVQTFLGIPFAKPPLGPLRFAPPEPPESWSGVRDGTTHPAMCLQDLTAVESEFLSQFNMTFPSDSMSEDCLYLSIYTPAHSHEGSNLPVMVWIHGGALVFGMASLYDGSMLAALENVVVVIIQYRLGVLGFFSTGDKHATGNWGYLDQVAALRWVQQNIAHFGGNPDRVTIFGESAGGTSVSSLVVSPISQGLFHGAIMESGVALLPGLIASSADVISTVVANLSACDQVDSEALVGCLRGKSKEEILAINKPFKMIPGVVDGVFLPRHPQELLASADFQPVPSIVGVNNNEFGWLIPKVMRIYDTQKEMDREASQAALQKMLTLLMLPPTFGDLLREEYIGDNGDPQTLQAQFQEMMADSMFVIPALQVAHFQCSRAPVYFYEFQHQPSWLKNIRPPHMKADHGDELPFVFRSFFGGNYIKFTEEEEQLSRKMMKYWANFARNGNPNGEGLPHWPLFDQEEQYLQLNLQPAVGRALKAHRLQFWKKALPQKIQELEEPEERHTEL
The experiment in a line: Esterase inhibition, fluorimetric assay with CMNA substrate. The format is biochemical.

[7] abbreviates: as inhibitor concentration increases.

For `O=C(OCc1ccccc1)c1ccc(O)cc1` [Benzylparaben, benzylparaben], the IC50 in test [1] was greater than 10000 nM; in test [3], greater than 10000 nM; in test [5], 230 nM; in test [6] it was greater than 10000 nM. Besides, the “mechanism of FAAH inhibition” value in test [2] was “mixed type mechanism”. In addition, the Ki in test [2] (Ki, linear mixed-type model of inhibition) was 52 ± 14 nM; in test [2] (upper limit of relative Ki, at saturating substrate, mixed-type interaction), no more than 1000 nM. The “potency relative to URB597 (less potent)” value in test [2] (after a 5 min incubation) is listed as 3 fold. Also, the “change in KM app” value in test [2] (setting [7]) lay in the range of 18 to 98 µM. Besides, in test [2] (setting [7]), the “change in Vmax app” value is 5.5 RFU/s to 2.0 RFU/s. In addition, the α value in test [2] (linear mixed-type model of inhibition) amounted to 9.7 ± 6.6. In test [2] (pre-incubation of enzyme with inhibitor up to 1 h), the “time-dependence of FAAH inhibition” value is “independent on incubation time”. For the same molecule, the “effect on AEA-mediated adipocyte differentiation (Oil Red O)” value in test [4] (10 μM compound, co-treatment with AEA 10 μM, 7 days) was “do not synergize to increase adipocyte differentiation”. Moreover, the “adipocyte differentiation / lipid accumulation (Oil Red O staining)” value in test [4] (1, 10, 50 μM for 7 days) is “dose-dependently enhanced 3T3-L1 adipocyte differentiation”.

By IC50 is commonly meant the concentration needed to halve the response being measured. A word on the Ki: it is a dissociation constant, usually derived from enzyme kinetics or from competition with a known ligand.
